Results from ChEMBL document CHEMBL1146935, “A novel series of urea-based peptidomimetic calpain inhibitors” (Bioorg Med Chem Lett, 2006).

Columns and labels:
[1] = biological target: T1, Calpain-1 catalytic subunit (Sus scrofa, UniProt P35750); assay: Inhibition of mu calpain in porcine erythrocyte
T1 sequence (P35750 whole entry): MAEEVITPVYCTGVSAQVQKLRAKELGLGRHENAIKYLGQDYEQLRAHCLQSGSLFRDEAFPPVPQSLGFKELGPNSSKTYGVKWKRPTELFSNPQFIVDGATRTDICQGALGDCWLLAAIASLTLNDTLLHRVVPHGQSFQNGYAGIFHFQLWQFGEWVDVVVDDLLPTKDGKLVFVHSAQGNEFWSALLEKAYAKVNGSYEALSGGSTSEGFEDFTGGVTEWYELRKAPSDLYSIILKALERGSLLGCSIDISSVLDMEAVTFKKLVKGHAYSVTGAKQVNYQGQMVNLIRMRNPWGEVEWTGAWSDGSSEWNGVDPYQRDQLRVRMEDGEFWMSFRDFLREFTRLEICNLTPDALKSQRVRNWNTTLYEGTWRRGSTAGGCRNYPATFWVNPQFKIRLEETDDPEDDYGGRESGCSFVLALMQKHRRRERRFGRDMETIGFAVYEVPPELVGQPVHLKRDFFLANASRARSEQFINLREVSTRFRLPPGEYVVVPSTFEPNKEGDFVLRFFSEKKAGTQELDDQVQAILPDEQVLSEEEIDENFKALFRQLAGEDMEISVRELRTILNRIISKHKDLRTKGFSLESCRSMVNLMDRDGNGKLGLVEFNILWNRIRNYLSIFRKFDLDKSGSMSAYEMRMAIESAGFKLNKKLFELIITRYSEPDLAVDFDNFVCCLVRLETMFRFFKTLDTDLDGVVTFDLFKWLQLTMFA

[2] = biological target: Cathepsin B (Homo sapiens, UniProt P07858); assay: Inhibition of cathepsin B from human brain
[3] = Selectivity for porcine mu calpain over human cathepsin B
[4] = species: Sus scrofa; assay: Inhibition of mu calpain in porcine erythrocyte at 100 uM

| Ki [1] | Ki [2] | Ratio Ki [3] | inhibition [4] | Compound |
| --- | --- | --- | --- | --- |
| 9.27 µM |  |  |  | CC(C)CN(CCOCc1ccccc1)C(=O)N[C@H](C=O)C(C)C |
| 0.01 µM | 0.02 µM | 2 |  | CC(C)C(C(=O)N[C@H](C=O)Cc1ccccc1)C(=O)OCc1ccccc1 (some centres not stated) |
| 6.82 µM |  |  |  | CC(C)N(Cc1ccccc1)C(=O)N[C@H](C=O)Cc1ccccc1 |
|  |  |  | 13% | CC(C)NC(=O)N[C@H](C=O)Cc1ccccc1 |
| 88.7 µM |  |  |  | CC(C)CN(CCOCc1ccccc1)C(=O)NCC=O |
| 6.69 µM |  |  |  | CN(CCOCc1ccccc1)C(=O)N[C@H](C=O)Cc1ccccc1 |
| 0.4 µM |  |  |  | CC(C)N(CCCCc1ccccc1)C(=O)N[C@H](C=O)Cc1ccccc1 |
| 6.65 µM |  |  |  | O=C[C@H](Cc1ccccc1)NC(=O)N(CCOCc1ccccc1)Cc1ccccc1 |
| 0.015 µM | 0.12 µM | 8 |  | CC(C)CC(C(=O)N[C@H](C=O)Cc1ccccc1)C(=O)OCc1ccccc1 (some centres not stated) |
| 0.23 µM | 22.1 µM | 96.1 |  | CC(C)N(CCOCc1ccccc1)C(=O)N[C@H](C=O)Cc1ccccc1 |
| 0.15 µM | 33.3 µM | 222 |  | CC(C)CN(CCOCc1ccccc1)C(=O)N[C@H](C=O)Cc1ccccc1 |
| 2.35 µM |  |  |  | CC(C)N(CCc1ccccc1)C(=O)N[C@H](C=O)Cc1ccccc1 |
| 1.15 µM |  |  |  | CCN(CCOCc1ccccc1)C(=O)N[C@H](C=O)Cc1ccccc1 |
| 1.16 µM |  |  |  | CC(C)N(CCCc1ccccc1)C(=O)N[C@H](C=O)Cc1ccccc1 |
